Laboratory results from patent US8008291B2 (Mimetica Pty Ltd, priority 2008, dated 2011).

biological target: T1, human MC5R (hMC5R) (Homo sapiens, UniProt P33032); assay: Human MC5R radioligand binding assay (membranes, [125I] NDP-MSH displacement); conditions: hMC5R binding; tested as trifluoroacetate or hydrochloride salts, or free bases; read-out: MC5R radioligand IC50
T1 construct: purchased Perkin Elmer RBXMC5M400UA
Outline: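 Frozen human MC5R membranes incubated with test compound and in-house iodogen-labeled, HPLC-purified [125I]NDP-MSH for 1 hr at 37° C. Binding measured as displacement of the radioligand.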

T1 sequence (P33032 whole entry): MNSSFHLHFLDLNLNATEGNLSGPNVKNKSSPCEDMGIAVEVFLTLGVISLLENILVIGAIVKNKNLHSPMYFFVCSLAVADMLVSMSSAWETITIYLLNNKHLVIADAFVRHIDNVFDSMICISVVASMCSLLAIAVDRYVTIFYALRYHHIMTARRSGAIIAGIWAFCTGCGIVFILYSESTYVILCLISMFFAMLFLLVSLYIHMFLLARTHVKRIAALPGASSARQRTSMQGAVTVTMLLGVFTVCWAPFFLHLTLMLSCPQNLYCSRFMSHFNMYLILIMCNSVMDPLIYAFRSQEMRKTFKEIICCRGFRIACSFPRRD

| Compound | IC50 |
| --- | --- |
| NCCC[C@@H]1N[C@H](CNC(=O)c2ccc3ccccc3c2)CCN(Cc2cc(Cl)ccc2Cl)C1=O [Compound 314, N-(((3S,5S)-3-(3-aminopropyl)-1-(2,5-dichlorobenzyl)-2-oxo-1,4-diazepan-5-yl)methyl)-2-naphthamide] | < 10000 nM |
| C[C@@H](CN1CC[C@@H](CNC(=O)c2ccc3ccccc3c2)N[C@@H](CCN2CCCCC2)C1=O)c1ccc(Cl)cc1 [Compound 423, N-(((3S,5S)-1-((R)-2-(4-chlorophenyl)propyl)-2-oxo-3-(2-(piperidin-1-yl)ethyl)-1,4-diazepan-5-yl)methyl)-2-naphthamide] | < 10000 nM |
| CC(C)c1ccc(/C=C/C(=O)NC[C@@H]2CCN(CC(c3ccccc3)c3ccccc3)C(=O)[C@H](CCN)N2)cc1 [Compound 397, (E)-N-(((3S,5S)-3-(2-aminoethyl)-1-(2,2-diphenylethyl)-2-oxo-1,4-diazepan-5-yl)methyl)-3-(4-isopropylphenyl)acrylamide] | < 1000 nM |
| N=C(N)NCCC[C@@H]1N[C@H](CNC(=O)c2ccc3ccccc3c2)CCN(CCc2ccc3ccccc3c2)C1=O [Compound 264, N-(((3S,5S)-3-(3-guanidinopropyl)-1-(2-(naphthalen-2-yl)ethyl)-2-oxo-1,4-diazepan-5-yl)methyl)-2-naphthamide] | < 10000 nM |
| CC[C@H](CN1CC[C@@H](CNC(=O)c2ccc(Cl)c(Cl)c2)N[C@@H](CCN2CCC(O)CC2)C1=O)c1ccccc1 [Compound 450, 3,4-dichloro-N-(((3S,5S)-3-(2-(4-hydroxypiperidin-1-yl)ethyl)-2-oxo-1-((S)-2-phenylbutyl)-1,4-diazepan-5-yl)methyl)benzamide] | < 100 nM |
| CC1CC(C)CC(CN2CC[C@@H](CNC(=O)c3ccc4ccccc4c3)N[C@@H](CCN)C2=O)C1 (stereo partly drawn) [Compound 376, N-(((3S,5S)-3-(2-aminoethyl)-1-((3,5-dimethylcyclohexyl)methyl)-2-oxo-1,4-diazepan-5-yl)methyl)-2-naphthamide] | < 1000 nM |
| CC(C)(NC(=O)/C=C/c1ccc(Cl)cc1)[C@@H]1CCN(CC(c2ccccc2)c2ccccc2)C(=O)[C@H](CCN2CCCCC2)N1 [Compound 420, (E)-3-(4-chlorophenyl)-N-(2-((3S,5S)-1-(2,2-diphenylethyl)-2-oxo-3-(2-(piperidin-1-yl)ethyl)-1,4-diazepan-5-yl)propan-2-yl)acrylamide] | < 1000 nM |
| CC[C@H](CN1CC[C@@H](CNC(=O)c2ccc(Cl)c(Cl)c2)N[C@@H](CCN2CCCCC2)C1=O)C(C)C [Compound 462, 3,4-dichloro-N-(((3S,5S)-1-((S)-2-ethyl-3-methylbutyl)-2-oxo-3-(2-(piperidin-1-yl)ethyl)-1,4-diazepan-5-yl)methyl)benzamide] | < 100 nM |
| NCCC[C@@H]1N[C@H](CNC(=O)c2ccc3ccccc3c2)CCN(CC2(c3ccccc3)CCCCC2)C1=O [Compound 325, N-(((3S,5S)-3-(3-aminopropyl)-2-oxo-1-((1-phenylcyclohexyl)methyl)-1,4-diazepan-5-yl)methyl)-2-naphthamide] | < 1000 nM |
| NCC[C@@H]1N[C@H](CNC(=O)CCc2ccc(Cl)cc2)CCN(CC(c2ccccc2)c2ccccc2)C1=O [Compound 392, N-(((3S,5S)-3-(2-aminoethyl)-1-(2,2-diphenylethyl)-2-oxo-1,4-diazepan-5-yl)methyl)-3-(4-chlorophenyl)propanamide] | < 10000 nM |
| CCC[C@H](CN1CC[C@@H](CNC(=O)c2ccc3ccccc3c2)N[C@@H](CCN2CCCCC2)C1=O)c1ccccc1 [Compound 433, N-(((3S,5S)-2-oxo-1-((S)-2-phenylpentyl)-3-(2-(piperidin-1-yl)ethyl)-1,4-diazepan-5-yl)methyl)-2-naphthamide] | < 100 nM |
| CC[C@H](CN1CC[C@@H](CNC(=O)/C=C/c2ccc(Cl)cc2)N[C@@H](CCN2CCCC2)C1=O)c1ccccc1 [Compound 407, (E)-3-(4-chlorophenyl)-N-(((3S,5S)-2-oxo-1-((S)-2-phenylbutyl)-3-(2-(pyrrolidin-1-yl)ethyl)-1,4-diazepan-5-yl)methyl)acrylamide] | < 100 nM |
| CCCCC(CC)C(=O)NC[C@@H]1CCN(CC(c2ccccc2)c2ccccc2)C(=O)[C@H](CCCNC(=N)N)N1 (stereo partly drawn) [Compound 224, N-(((3S,5S)-1-(2,2-diphenylethyl)-3-(3-guanidinopropyl)-2-oxo-1,4-diazepan-5-yl)methyl)-2-ethylhexanamide] | < 1000 nM |
| C=C(C)[C@H](CC)CN1CC[C@@H](CNC(=O)c2ccc3cc(Cl)ccc3c2)N[C@@H](CCN2CCCCC2)C1=O [Compound 479, 6-chloro-N-(((3S,5S)-1-((S)-2-ethyl-3-methylbut-3-enyl)-2-oxo-3-(2-(piperidin-1-yl)ethyl)-1,4-diazepan-5-yl)methyl)-2-naphthamide] | < 10 nM |
| CCOc1ccc(/C=C/C(=O)NC[C@@H]2CCN(CC(c3ccccc3)c3ccccc3)C(=O)[C@H](CCCNC(=N)N)N2)cc1 [Compound 210, (E)-N-(((3S,5S)-1-(2,2-diphenylethyl)-3-(3-guanidinopropyl)-2-oxo-1,4-diazepan-5-yl)methyl)-3-(4-ethoxyphenyl)acrylamide] | < 100 nM |
| CCC(CC)CN1CC[C@@H](CNC(=O)c2ccc3cc(F)ccc3c2)N[C@@H](CCN)C1=O [Compound 369, N-(((3S,5S)-3-(2-aminoethyl)-1-(2-ethylbutyl)-2-oxo-1,4-diazepan-5-yl)methyl)-6-fluoro-2-naphthamide] | < 1000 nM |
| N=C(N)NCCC[C@@H]1N[C@H](CNC(=O)c2cc3ccccc3[nH]2)CCN(CC(c2ccccc2)c2ccccc2)C1=O [Compound 109, N-(((3S,5S)-1-(2,2-diphenylethyl)-3-(3-guanidinopropyl)-2-oxo-1,4-diazepan-5-yl)methyl)-1H-indole-2-carboxamide] | < 1000 nM |
| CCC(CC)CN1CC[C@@H](CNC(=O)c2ccc3cc(Br)ccc3c2)N[C@@H](CCN2CCCCC2)C1=O [Compound 374, 6-bromo-N-(((3S,5S)-1-(2-ethylbutyl)-2-oxo-3-(2-(piperidin-1-yl)ethyl)-1,4-diazepan-5-yl)methyl)-2-naphthamide] | < 100 nM |
| CC[C@H](CN1CC[C@@H](CNC(=O)c2ccc3cc(Cl)ccc3c2)N[C@@H](CCN2CCOCC2)C1=O)c1ccccc1 [Compound 515, 6-chloro-N-(((3S,5S)-3-(2-morpholinoethyl)-2-oxo-1-((S)-2-phenylbutyl)-1,4-diazepan-5-yl)methyl)-2-naphthamide] | < 100 nM |

More lines, now with the values ahead:

| IC50 | Compound |
| --- | --- |
| < 1000 nM | N=C(N)NCCC[C@@H]1N[C@H](CNC(=O)c2ccc3ccccc3c2)CCN(C[C@@H](NC(=O)C2CCC2)c2ccccc2)C1=O [Compound 269, N-(((3S,5S)-1-((S)-2-(cyclobutanecarboxamido)-2-phenylethyl)-3-(3-guanidinopropyl)-2-oxo-1,4-diazepan-5-yl)methyl)-2-naphthamide] |
| < 100 nM | CC[C@H](CN1CC[C@@H](CNC(=O)c2ccc3ccccc3c2OC)N[C@@H](CCN2CCCCC2)C1=O)c1ccccc1 [Compound 538, 1-methoxy-N-(((3S,5S)-2-oxo-1-((S)-2-phenylbutyl)-3-(2-(piperidin-1-yl)ethyl)-1,4-diazepan-5-yl)methyl)-2-naphthamide] |
| < 1000 nM | CC[C@H](CN1CC[C@@H](CNC(=O)c2ccc3cc(Cl)ccc3c2)N[C@@H](CCN(C(C)=O)C(C)C)C1=O)c1ccccc1 [Compound 498, 6-chloro-N-(((3S,5S)-3-(2-(N-isopropylacetamido)ethyl)-2-oxo-1-((S)-2-phenylbutyl)-1,4-diazepan-5-yl)methyl)-2-naphthamide] |
| < 1000 nM | O=C1[C@H](CCN2CCCCC2)N[C@H](CN2C(=O)c3cc(Cl)c(Cl)cc3C2=O)CCN1Cc1cc(Cl)cc(Cl)c1 [Compound 535, 5,6-dichloro-2-(((3S,5S)-1-(3,5-dichlorobenzyl)-2-oxo-3-(2-(piperidin-1-yl)ethyl)-1,4-diazepan-5-yl)methyl)isoindoline-1,3-dione] |
| < 1000 nM | CC[C@H](CN1CC[C@@H](CNC(=O)c2ccc3cc(Cl)ccc3c2)N[C@@H](CCCNC(N)=O)C1=O)c1ccccc1 [Compound 490, 6-chloro-N-(((3S,5S)-2-oxo-1-((S)-2-phenylbutyl)-3-(3-ureidopropyl)-1,4-diazepan-5-yl)methyl)-2-naphthamide] |
| < 100 nM | Cc1ccc(/C=C/C(=O)NC[C@@H]2CCN(CC(c3ccccc3)c3ccccc3)C(=O)[C@H](CCN3CCCCC3)N2)c(C)c1 [Compound 398, (E)-3-(2,4-dimethylphenyl)-N-(((3S,5S)-1-(2,2-diphenylethyl)-2-oxo-3-(2-(piperidin-1-yl)ethyl)-1,4-diazepan-5-yl)methyl)acrylamide] |
| < 1000 nM | NCC[C@@H]1N[C@H](CNC(=O)c2ccc(Cl)c(Cl)c2)CCN(Cc2ccc(Cl)cc2Cl)C1=O [Compound 502, N-(((3S,5S)-3-(2-aminoethyl)-1-(2,4-dichlorobenzyl)-2-oxo-1,4-diazepan-5-yl)methyl)-3,4-dichlorobenzamide] |
| < 10000 nM | NCCCC[C@@H]1N[C@H](CNC(=O)Cc2c[nH]c3ccccc23)CCN(Cc2cccc3ccccc23)C1=O [Compound 120, N-(((3S,5S)-3-(4-aminobutyl)-1-(naphthalen-1-ylmethyl)-2-oxo-1,4-diazepan-5-yl)methyl)-2-(1H-indol-3-yl)acetamide] |
| < 100 nM | CC[C@H](CN1CC[C@@H](CNC(=O)c2ccc(Cl)c(Cl)c2)N[C@@H](CCCN2CCCCC2)C1=O)c1ccccc1 [Compound 418, 3,4-dichloro-N-(((3S,5S)-2-oxo-1-((S)-2-phenylbutyl)-3-(3-(piperidin-1-yl)propyl)-1,4-diazepan-5-yl)methyl)benzamide] |
| < 10000 nM | N=C(N)NCCC[C@@H]1N[C@H](CNC(=O)c2ccc3ccccc3c2)CCN(C[C@H](NC(=O)c2ccccc2)c2ccccc2)C1=O [Compound 288, N-(((3S,5S)-1-((R)-2-benzamido-2-phenylethyl)-3-(3-guanidinopropyl)-2-oxo-1,4-diazepan-5-yl)methyl)-2-naphthamide] |
